Source: patent US5498775A, “Polyanionic benzylglycosides as inhibitors of smooth muscle cell proliferation” (American Home Products Corporation, priority 1994, dated 1996)

Assays:
[1] = tested on: human and porcine aortic smooth muscle cells and human aortic endothelial cells; assay: Cytotoxicity, MTT assay; format: cell-based; conditions: up to 250 μM, 24 h at 37° C., without serum
Source text: (§1) The ability of the compounds of the present invention to inhibit smooth muscle cell proliferation and modulate endothelial cell growth was established using isolated aortic cells obtained from commercial sources or, for certain species, prepared in-house. Cell lines used in this study include human and porcine aortic smooth muscle cells and human aortic endothelial cells. Human aortic cell lines were obtained from Clonetics Corporation (San Diego).
Briefly, cells were again grown in 24 well plates to 70-80% confluency and, as before, serum deprived for 24-48 h prior to initiation of the experimental protocol. To insure that the MTT assay monitored toxicity rather than proliferation, cells were incubated with 250 μM drug in fresh medium without serum for 24 h at 37° C. in a humidified CO2 incubator. Upon completion of the compound treatment, MTT (3-[4,5-dimethylthiazol-2-yl]-2,5-diphenyltetrazolium bromide) indicator dye was added for 4 h at 37° C. Cells were then lysed and aliquots from each well were transferred to a 96 well plate for analysis. Absorbance at 570 nm wavelength with a reference wavelength of 630 nm was recorded using an ELISA plate reader. Results are reported as percent viable using no drug (100% viable) and pre-solubilization (0% viable) standards.

human endothelial cell = assay: Effect on endothelial cell growth vs. smooth muscle cell proliferation; format: cell-based; conditions: driven by 2% FBS, at doses inhibitory towards human SMC proliferation driven by 10% FBS; FIG. 1
Source text: as §1
B. Effects of compounds on cell proliferation using ^3 H Thymidine incorporation
Cells were assayed in early passage (generally passage 3-7) at sub-confluent conditions. Cultures were grown in 16 mm (24 well) multi-well culture dishes in media 199 supplemented with 10% fetal bovine serum and 2% antibiotic/antimycotic. At sub-confluence, the cells were placed in a defined serum free medium (AIM-V; Gibco) for 24-48 h prior to initiating the experimental protocol.
Growth factor and serum stimulations were optimized for each cell type.
Compounds were added to each well at 50 fold dilution (20 μL/well) and the plates were incubated for 24-36 h at 37° C. in 5% CO2. […] Compounds were routinely assayed at 1, 10, and 100 μM. […]
Data was obtained, in triplicate, for both control and experimental samples. […] Data was expressed as a percent of control from which IC50 s could be determined. […]

normal human plasma = assay: Anticoagulant activity, partial thromboplastin time (APTT) assay; format: biochemical; conditions: ratio >1 indicates weaker activity relative to heparin on a μg/mL comparison
Description: A BBL Fibrometer automatic precesion coagulation timer utilizing a 0.3 mL probe was employed. An Ellagic acid activated partial thromboplastin was used for these experiments. This reagent was added to human citrated plasma equilibrated at 37° C. in a plastic well in the clot timer. Calcium at 37° C. was added, the clot timer was started and the time for fibrin clot formation (in seconds) was recorded. […] Clotting tests at all concentrations were run in triplicate. Analysis of variance for a randomized block design was used to determine the significance of differences observed in the clotting times.

SMILES	cytotoxicity (MTT) [1]	effect on human endothelial cell growth (human endothelial cell)	Anticoagulation Activity (APTT) Relative to Heparin (normal human plasma)
Cc1ccc(CO[C@@H]2O[C@H](COS(=O)(=O)O)[C@@H](O[C@H]3O[C@H](COS(=O)(=O)O)[C@@H](OS(=O)(=O)O)[C@H](OS(=O)(=O)O)[C@H]3OS(=O)(=O)O)[C@H](OS(=O)(=O)O)[C@H]2OS(=O)(=O)O)cc1NC(=O)c1cccc(NC(=O)Nc2cccc(C(=O)Nc3cc(CO[C@@H]4O[C@H](COS(=O)(=O)O)[C@@H](O[C@H]5O[C@H](COS(=O)(=O)O)[C@@H](OS(=O)(=O)O)[C@H](OS(=O)(=O)O)[C@H]5OS(=O)(=O)O)[C@H](OS(=O)(=O)O)[C@H]4OS(=O)(=O)O)ccc3C)c2)c1 [EXAMPLE 26, STEP 5]	No toxicity was observed up to 250 μM		
O=C(Nc1cc(CO[C@@H]2O[C@H](COS(=O)(=O)O)[C@@H](O[C@H]3O[C@H](COS(=O)(=O)O)[C@@H](OS(=O)(=O)O)[C@H](OS(=O)(=O)O)[C@H]3OS(=O)(=O)O)[C@H](OS(=O)(=O)O)[C@H]2OS(=O)(=O)O)cc(CO[C@@H]2O[C@H](COS(=O)(=O)O)[C@@H](O[C@H]3O[C@H](COS(=O)(=O)O)[C@@H](OS(=O)(=O)O)[C@H](OS(=O)(=O)O)[C@H]3OS(=O)(=O)O)[C@H](OS(=O)(=O)O)[C@H]2OS(=O)(=O)O)c1)c1ccc(-c2ccc(C(=O)Nc3cc(CO[C@@H]4O[C@H](COS(=O)(=O)O)[C@@H](O[C@H]5O[C@H](COS(=O)(=O)O)[C@@H](OS(=O)(=O)O)[C@H](OS(=O)(=O)O)[C@H]5OS(=O)(=O)O)[C@H](OS(=O)(=O)O)[C@H]4OS(=O)(=O)O)cc(CO[C@@H]4O[C@H](COS(=O)(=O)O)[C@@H](O[C@H]5O[C@H](COS(=O)(=O)O)[C@@H](OS(=O)(=O)O)[C@H](OS(=O)(=O)O)[C@H]5OS(=O)(=O)O)[C@H](OS(=O)(=O)O)[C@H]4OS(=O)(=O)O)c3)cc2)cc1 [EXAMPLE 18]		enhance human endothelial cell growth	2.1
